According to patent EP1459760A9, “Immunopotentiating inosine monophosphate 5'-nucleotidase resistant derivatives and uses thereof” (UNIVERSITY OF SOUTH FLORIDA, priority 1995, dated 1996):

How the values were obtained:
[1] = system: 5'-nucleotidase (from Crotalus atrox venom); assay type: biochemical
[2] = system: 5'-nucleotidase; assay: Percent hydrolysis by 5'-nucleotidase, further set of experiments; assay type: biochemical, Crotalus atrox; details: 20 minutes, 200 µl
[3] = system: influenza virus; design: species or system NMRI mice; details: mouse, in vivo
[4] = in vivo; cited from earlier work

Molecule: Nc1ncnc2c1ncn2[C@@H]1O[C@H](COP(=O)(O)O)[C@@H](O)[C@H]1O [Adenosine MP, adenosine-5'-monophosphate]
- Hydrolysis (%) [1]: 86.0%
- Percent hydrolysis by 5'-nucleotidase ([2]; Assay 1): 100.0%
- Percent hydrolysis by 5'-nucleotidase ([2]; Assay 2): 95.1%
- Percent hydrolysis by 5'-nucleotidase ([2]; Assay 3): 63.7%

Molecule: CC(C)CCCC(C)CCCC(C)CCCCC(C)CCCC(C)CCCC(C)C (stereo not drawn) [Squalane]
- effect on survivors and MST [3]: no effect

Molecule: isoprinosine
- half-life [4]: less than four
